From US20010034362A1, “Pyrrolidine derivatives for vision and memory disorders” (Guilford Pharmaceuticals Inc., priority 1998, published 2001)
Like-named read-outs stand apart in the source and are kept apart here.

Experiments:
[1] = molecular target: FKBP12 (Homo sapiens, UniProt P62942); assay: Inhibition of peptidyl-prolyl isomerase (rotamase) activity of FKBP, chymotrypsin-coupled assay, apparent Ki; type: biochemical
From the text: The inhibition of the prolyl peptidyl cis-trans isomerase activity of FKBP may be measured as an indicator of this affinity. Inhibition of the peptidyl-prolyl isomerase (rotamase) activity of the compounds used in the inventive methods and pharmaceutical compositions can be evaluated by known methods described in the literature (Harding et al., Nature, 1989, 341:758-760; Holt et al. J. Am. Chem. Soc., 115:9923-9938). […] The cis-trans isomerization of an alanine-proline bond in a model substrate, N-succinyl-[…]-nitroanilide, is monitored spectrophotometrically in a chymotrypsin-coupled assay, which releases para-nitroanilide from the trans form of the substrate. […] The reaction is initiated by the addition of […] of substrate (succinyl-[…]-nitroanilide, 5 mg/ml in 2.35 mM LiCl in trifluoroethanol).

[2] = Clearance (Table V comments); type: in vitro ADME
[3] = tested on: retinal ganglion cell axons; assay: Protection of retinal ganglion cell axons from degeneration following optic nerve transection (Table V); type: in vivo; settings: ± SEM
From the text: Efficacy of representative compounds from different immunophilin ligand series in protecing retinal gangiou cell axons from degeneration following optic nerve transection is set forth in Table V.

[4] = Table V comments, read-out: Ki rotamase
[5] = apparent Ki, rotamase inhibition, Table A, read-out: K1

Chain of FKBP12 (P62942 whole entry, species assumed): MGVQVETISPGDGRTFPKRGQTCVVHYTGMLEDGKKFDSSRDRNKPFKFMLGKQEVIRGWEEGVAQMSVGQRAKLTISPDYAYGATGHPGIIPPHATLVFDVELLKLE

O=C(SCCCc1ccccc1)[C@@H]1CCCN1C(=O)NC12CC3CC(CC(C3)C1)C2 [B]
Ki [1, 4]: 149 nM

O=C(SCCCc1ccccc1)[C@@H]1CCCN1S(=O)(=O)Cc1ccccc1 [C]
Ki [1, 4]: 107 nM | Clearance [2]: 31.1 µL/min | RT97 + RGC axon density 14 days after ON transection (% ON axons rescued) [3]: 60.4% ± 3.1% SEM

CCC(C)(C)C(=O)C(=O)N1CCC[C@H]1C(=O)OCCCc1ccccc1 [Compound 1, 3-Phenyl-1-propyl (2S)-1-(3,3-dimethyl-1,2-dioxopentyl)-2-pyrrolidinecarboxylate]
Ki [1, 5]: 42 nM

CCC(C)(C)C(=O)C(=O)N1CCCC1C(=O)OCC=Cc1ccccc1 [Compound 2, 3-phenyl-1-prop-2-(E)-enyl (2S)-1-(3,3-dimethyl-1,2-dioxopentyl)-2-pyrrolidinecarboxylate]
Ki [1, 5]: 125 nM

CCC(C)(C)C(=O)C(=O)N1CCCC1C(=O)OCC=Cc1cc(OC)c(OC)c(OC)c1 [Compound 4, 3-(3,4,5-trimethoxyphenyl)-1-prop-2-(E)-enyl (2S)-1-(3,3-dimethyl-1,2-dioxopentyl)-2-pyrrolidine carboxylate]
Ki [1, 5]: 65 nM

CCC(C)(C)C(=O)C(=O)N1CCCC1C(=O)OCC=Cc1ccc2c(c1)OCO2 [Compound 6, 3-(4,5-methylenedioxyphenyl)-1-prop-2-(E)-enyl (2S)-1-(3,3-dimethyl-1,2-dioxopentyl)-2-pyrrolidinecarboxylate]
Ki [1, 5]: 160 nM

CCC(C)(C)C(=O)C(=O)N1CCCC1C(=O)OCC=CC1CCCCC1 [Compound 8, 3-cyclohexyl-1-prop-2-(E) -enyl (2S) -1-(3,3-dimethyl-1,2-doxopentyl)-2-pyrrolidinecarboxylate]
Ki [1, 5]: 600 nM

O=C(C(=O)N1CCCC1C(=O)OCCCc1ccccc1)c1cccs1 [Compound 11, 3-phenyl-1-propyl (2S)-1-(1,2-dioxo-2-[2-thienyl])ethyl-2-pyrrolidinecarboxylate]
Ki [1, 5]: 92 nM

O=C(C(=O)N1CCCC1C(=O)OCCCc1ccccc1)c1nccs1 [Compound 12, 3-phenyl-1-propyl (2S)-1-(1,2-dioxo-2-[2-thiazolyl])ethyl-2-pyrrolidinecarboxylate]
Ki [1, 5]: 100 nM

O=C(C(=O)N1CCCC1C(=O)OCCCc1ccccc1)c1ccccc1 [Compound 13, 3-phenyl-1-propyl (2S)-1-(1,2-dioxo-2-phenyl)ethyl-2-pyrrolidinecarboxylate]
Ki [1, 5]: 1970 nM

CCC(C)(C)C(=O)C(=O)N1CCCC1C(=O)OCC=Cc1cc(OC)ccc1OC [Compound 15, 3-(2,5-dimethoxyphenyl)-1-prop-2-(E)-enyl (2S)-1-(3,3-dimethyl-1,2-dioxopentyl)-2-pyrrolidine-carboxylate]
Ki [1, 5]: 450 nM

O=C(C(=O)N1CCCC1C(=O)OCCC(c1ccccc1)c1ccccc1)C1CCCCC1 [Compound 29, 3,3-Diphenyl-1-propyl (2S)-1-cyclohexyl glyoxyl-2-pyrrolidinecarboxylate]
Ki [1, 5]: 20 nM

O=C(C(=O)N1CCCC1C(=O)OCCC(c1ccccc1)c1ccccc1)c1cccs1 [Compound 30, 3,3-Diphenyl-1-propyl (2S) -1-(2-thienyl) glyoxyl-2-pyrrolidinecarboxylate]
Ki [1, 5]: 150 nM

O=C(OCCCc1ccccc1)[C@@H]1CCCN1S(=O)(=O)Cc1ccccc1 [D]
RT97 + RGC axon density 14 days after ON transection (% ON axons rescued) [3]: 58.4% ± 6.4% SEM

CCC(C)(C)C(=O)C(=O)N1CCCC1C(=O)OC(CCc1ccccc1)CCc1ccccc1 (stereo not drawn) [E]
Clearance [2]: 41.8 µL/min | RT97 + RGC axon density 14 days after ON transection (% ON axons rescued) [3]: 56.6% ± 9.4% SEM

CCC(C)(C)C(=O)C(=O)N1CCS[C@@H]1C(=O)OCCCc1cccnc1 [F]
Ki [1, 4]: 272 nM

O=C(OCCCc1cccnc1)[C@@H]1CCCN1C(=S)NC1CCCCC1 [I]
Ki [1, 4]: 131 nM | Clearance [2]: 8.0 µL/min

CCC(C)(C)C(=O)C(=O)N1CCC[C@H]1C(=O)CCCCc1cccnc1 [J]
Clearance [2]: 1.5 µL/min

CCC(C)(C)C(=O)C(=O)N1CCCC[C@H]1C(=O)SCCC(c1ccccc1)c1ccccc1 [K]
Clearance [2]: 5.2 µL/min | RT97 + RGC axon density 14 days after ON transection (% ON axons rescued) [3]: 7.8% ± 3.0% SEM

CCC(C)(C)C(=O)C(=O)N1CCC[C@H]1C(=O)O [L]
Clearance [2]: 5.2 µL/min | RT97 + RGC axon density 14 days after ON transection (% ON axons rescued) [3]: 7.8% ± 3.0% SEM

CCC(C)(C)C(=O)C(=O)N1CCC[C@H]1C(=O)SCCC(c1ccccc1)c1ccccc1 [M]
Clearance [2]: 12.5 µL/min | RT97 + RGC axon density 14 days after ON transection (% ON axons rescued) [3]: −6.3% + 3.9 SEM

CN(C)C(=O)N1CCC[C@H]1C(=O)SCCCc1ccccc1 [N]
Ki [1, 4]: 722 nM | Clearance [2]: 21.9 µL/min
